Experimental data from patent publication US20230123334A1, “AMINO LIPID COMPOUND, PREPARATION METHOD THEREFOR, AND APPLICATION THEREOF” (SHENZHEN SHENXIN BIOTECHNOLOGY CO., LTD., priority 2020, published 2023).

Tested on: HEK293 cells
Experiment: Preliminary screening as mRNA vectors, EGFP mRNA transfection of HEK293 cells
Assay type: cell-based
Conditions: EGFP mRNA 50 ng per well, 96-well plates; percentage of GFP fluorescent cells relative to total number of cells (Hoechst)
Summary of the method: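 Each well of HEK293 cells received 50 ng of EGFP mRNA. Efficiency was expressed as percent GFP-expressing cells over Hoechst-defined total cell number.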

Structure (SMILES)	Absolute mRNA transfection efficiency in HEK293 cells [%]
CCCCCCCCCCCCCCCCSc1nc(NCCCCCCCCCCCC)nc(NCCCN2CCN(C)CC2)n1 [Compound D9S16N12]	12.4
CCCCCCCCCCCCCCCCCCSc1nc(NCCCCCCCCCCCCCCCC)nc(NCCN2CCN(C)CC2)n1 [Compound D5S18N16]	0.1
CCCCCCCCCSc1nc(NCCCCCC)nc(NCCN2CCOCC2)n1 [Compound D2S9N6]	0.5
CCCCCCCCCCCCNc1nc(NCC2CCN(C)CC2)nc(SCCCCCCCCCCCC)n1 [Compound D10S12N12]	31.5
CCCCCCCSc1nc(NCCCCCC)nc(NCCCN2CCOCC2)n1 [Compound D8S7N6]	1.8
CCCCCCCCCCCCCCSc1nc(NCCCCCCCCCCCCC)nc(NCCN2CCN(C)CC2)n1 [Compound D5S14N13]	12.9
CCCCCCCCCCCCCCSc1nc(NCCN(CC)CC)nc(SCCCCCCC)n1 [Compound D7S7S14]	4.1
CCCCCCCCCCSc1nc(NCCCCCC)nc(NCCCN(C)C)n1 [Compound D6S10N6]	1.5
CCCCCCCCCSc1nc(NCCCCCCCC)nc(NCCN(C)C)n1 [Compound D1S9N8]	2.9
CCCCCCCCCCCCNc1nc(NCCN2CCCCC2)nc(SCCCCCCCCCCCC)n1 [Compound D4S12N12]	2.1
CCCCCCCCCSc1nc(NCCCCCC)nc(NCCN(CC)CC)n1 [Compound D7S9N6]	0.6
CCCCCCCSc1nc(NCCN2CCN(C)CC2)nc(SCCCCCC)n1 [Compound D5S6S7]	10.0
CCCCCCCCCCCSc1nc(NCCN2CCOCC2)nc(SCCCCCCCC)n1 [Compound D2S8S11]	43.3
CCCCCCCCCSc1nc(NCCCN2CCOCC2)nc(SCCCCCCCC)n1 [Compound D8S8S9]	47.2
CCCCCCCCCCCCCCCCSc1nc(NCCCN(C)C)nc(N(CCCCCCCCCCCC)CCCCCCCCCCCC)n1 [D6S16^2N12]	1.0
CCCCCCCCCCSc1nc(NCCCCCCC)nc(NCCN2CCCCC2)n1 [Compound D4S10N7]	0.1
CCCCCCCCCCCCNc1nc(NCCN2CCOCC2)nc(SCCCCCCCCCC)n1 [Compound D2S10N12]	1.5
CCCCCCCCCCCSc1nc(NCCCCCC)nc(NCCN(C)C)n1 [Compound D1S11N6]	4.4
CCCCCCCCCCCCCCCSc1nc(NCCCCCCCCCCCC)nc(NCCCN2CCOCC2)n1 [Compound D8S15N12]	0.3
CCCCCCCCCCCCCCSc1nc(NCCCCCCCCCCCCC)nc(NCCN2CCCCC2)n1 [Compound D4S14N13]	14.5
CCCCCCCCCCCCCCCCNc1nc(NCCN2CCN(C)CC2)nc(SCCCCCCCCC)n1 [Compound D5S9N16]	16.1
CCCCCCCSc1nc(NCCCN2CCOCC2)nc(SCCCCCC)n1 [Compound D8S6S7]	1.5
CCCCCCCCCCCCCCCCCCSc1nc(NCCCCCCCCCCC)nc(NCCCN2CCOCC2)n1 [Compound D8S18N11]	1.9

Structure (SMILES)	Absolute mRNA transfection efficiency in HEK293 cells [%]
CCCCCCCCCCCCCCCNc1nc(NCC2CCN(C)CC2)nc(SCCCCCCCCCCCCCC)n1 [Compound D10S14N15]	3.3
CCCCCCNc1nc(NCC2CCN(C)CC2)nc(SCCCCCC)n1 [Compound D10S6N6]	0.3
CCCCCCCCCSc1nc(NCCCCCC)nc(NCCN(C)C)n1 [Compound D1S9N6]	1.1
CCCCCCCCCCCCCCCCCCNc1nc(NCCCN(C)C)nc(SCCCCCCCCCCCCCCCCCC)n1 [Compound D6S18N18]	0.0
CCCCCCCCCCCCCCCCCCSc1nc(NCCN(C)C)nc(SCCCCCC)n1 [Compound D1S6S18]	15.9
CCCCCCCNc1nc(NCCCN2CCOCC2)nc(SCCCCCC)n1 [Compound D8S6N7]	0.4
CCCCCCCCCCCCCCCCSc1nc(NCCN2CCCC2)nc(SCCCCCC)n1 [Compound D3S6S16]	16.9
CCCCCCCCCCCCCCCCSc1nc(NCCCN2CCOCC2)nc(N(CCCCCCCCCCCC)CCCCCCCCCCCC)n1 [D8S16^2N12]	0.0
CCCCCCCCCSc1nc(NCCN(C)C)nc(SCCCCCCCC)n1 [Compound D1S8S9]	7.4
CCCCCCCCCSc1nc(NCCCCCCC)nc(NCCN(CC)CC)n1 [Compound D7S9N7]	1.6
CCCCCCCCCCCCCCCCCCNc1nc(NCCN2CCCCC2)nc(SCCCCCCC)n1 [Compound D4S7N18]	7.9
CCCCCCCCCCCCCCSc1nc(NCCCCCCCCCCCC)nc(NCCN2CCCCC2)n1 [Compound D4S14N12]	12.6
CCCCCCCCCCCSc1nc(NCCN2CCOCC2)nc(SCCCCCC)n1 [Compound D2S6S11]	7.4
CCCCCCCCCCSc1nc(NCCCCCCCC)nc(NCCN2CCCC2)n1 [Compound D3S10N8]	0.4
CCCCCCCCCCCCCCCNc1nc(NCCN2CCCCC2)nc(SCCCCCCCCCCCCCC)n1 [Compound D4S14N15]	1.7
CCCCCCCCCCCCCCSc1nc(NCCCCCCCC)nc(NCCCN2CCOCC2)n1 [Compound D8S14N8]	1.6
CCCCCCCCCCCCCCCCSc1nc(NCCN2CCOCC2)nc(SCCCCCCC)n1 [Compound D2S7S16]	13.9
CCCCCCCCNc1nc(NCCCN(C)C)nc(SCCCCCC)n1 [Compound D6S6N8]	0.4
CCCCCCCCCCCCCCCCCCNc1nc(NCCN(CC)CC)nc(SCCCCCCC)n1 [Compound D7S7N18]	16.7
CCCCCCCCCCCNc1nc(NCCCN2CCN(C)CC2)nc(SCCCCCCCCCC)n1 [Compound D9S10N11]	11.3
CCCCCCCCCCCCCCCCNc1nc(NCCN(CC)CC)nc(SCCCCCCC)n1 [Compound D7S7N16]	12.8
CCCCCCCCSc1nc(NCCCCCC)nc(NCCN2CCCCC2)n1 [Compound D4S8N6]	2.7
CCCCCCCCCCCNc1nc(NCCN(CC)CC)nc(SCCCCCCCCCCC)n1 [Compound D7S11N11]	35.0

Structure (SMILES)	Absolute mRNA transfection efficiency in HEK293 cells [%]
CCCCCCCCCCCCCCCSc1nc(NCCCCCCC)nc(NCCN2CCN(C)CC2)n1 [Compound D5S15N7]	25.2
CCCCCCCCCCCCCCCNc1nc(NCCN2CCOCC2)nc(SCCCCCCCCCC)n1 [Compound D2S10N15]	1.3
CCCCCCCCCCCCCCCCCCSc1nc(NCC2CCN(C)CC2)nc(SCCCCCC)n1 [Compound D10S6S18]	72.8
CCCCCCCCCCCSc1nc(NCCCCCCCCC)nc(NCCN2CCCCC2)n1 [Compound D4S11N9]	4.2
CCCCCCCCCCCCN(CCCCCCCCCCCC)c1nc(NCCN(CC)CC)nc(SCCCCCCCC)n1 [D7S8^2N12]	1.3
CCCCCCCCCCCCCCCCSc1nc(NCCCCCCC)nc(NCCCN(C)C)n1 [Compound D6S16N7]	88.3
CCCCCCCCCCCCCCSc1nc(NCCCCCCC)nc(NCC2CCN(C)CC2)n1 [Compound D10S14N7]	55.0
CCCCCCCCCCCCCCCCCCNc1nc(NCC2CCN(C)CC2)nc(SCCCCCCCCCCCCCCC)n1 [Compound D10S15N18]	4.2
CCCCCCCCCCCCSc1nc(NCCN(CC)CC)nc(SCCCCCCC)n1 [Compound D7S7S12]	5.8
CCCCCCCCCCCCCCCSc1nc(NCCCCCCCCC)nc(NCCN(CC)CC)n1 [Compound D7S15N9]	9.4
CCCCCCCCCCCCCCCNc1nc(NCCN2CCOCC2)nc(SCCCCCCCCCCCCCCC)n1 [Compound D2S15N15]	0.2
CCCCCCCCCCSc1nc(NCCCCCCCCC)nc(NCCN(CC)CC)n1 [Compound D7S10N9]	1.6
CCCCCCCCCCCCSc1nc(NCCCCCCCC)nc(NCCN2CCOCC2)n1 [Compound D2S12N8]	1.6
CCCCCCCCCCCCNc1nc(NCCCN2CCN(C)CC2)nc(SCCCCCCCCCCC)n1 [Compound D9S11N12]	21.7
CCCCCCCCCCSc1nc(NCCN2CCN(C)CC2)nc(SCCCCCCCC)n1 [Compound D5S8S10]	65.6
CCCCCCCCCNc1nc(NCCN2CCCCC2)nc(SCCCCCCC)n1 [Compound D4S7N9]	4.9
CCCCCCCCCCCCCCCNc1nc(NCCN(CC)CC)nc(SCCCCCCCCCCC)n1 [Compound D7S11N15]	6.5
CCCCCCCCSc1nc(NCCCN2CCOCC2)nc(SCCCCCC)n1 [Compound D8S6S8]	0.2
CCCCCCCCCCCCCCCCCCSc1nc(NCCCCCCC)nc(NCCCN2CCN(C)CC2)n1 [Compound D9S18N7]	86.6
CCCCCCCCCCCCSc1nc(NCCCCCCCC)nc(NCCN2CCCCC2)n1 [Compound D4S12N8]	1.6
CCCCCCCCCCCCCCCCSc1nc(NCCN2CCCC2)nc(SCCCCCCC)n1 [Compound D3S7S16]	11.6
